This note sets out measurements from the supplement of paper PMC10307832.

What all share (test): relative viability (nuclei count vs DMSO), 5 days (fraction); higher = more cells survive
Compound in the assay “DM3189 + Luminespib”: C1CN(CCN1)C2=CC=C(C=C2)C3=CN4C(=C(C=N4)C5=CC=NC6=CC=CC=C56)N=C3 [DM3189] + CCNC(=O)c1noc(-c2cc(C(C)C)c(O)cc2O)c1-c1ccc(CN2CCOCC2)cc1 [Luminespib] (partner 0.01 µM)
The essentials: (§1)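 A single step with final 0.05% Triton X-100, 1% formaldehyde and 1 ug/ml Hoechst fixed the cells and stained nuclei 5 days after treatment. Lung cancer cell lines in 1536-well plates had been treated by pin tool the day after seeding with one drug alone or a fixed anchor-drug dose plus five library-drug doses (not always all listed) in √10 steps, and nuclei were counted on 4× images. Relative viability is the ratio of nuclei in treated wells to nuclei in vehicle wells, taken as the median of duplicate plates.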

Compound in the assay “DM3189 + Pictilisib”: C1CN(CCN1)C2=CC=C(C=C2)C3=CN4C(=C(C=N4)C5=CC=NC6=CC=CC=C56)N=C3 [DM3189] + CS(=O)(=O)N1CCN(Cc2cc3nc(-c4cccc5[nH]ncc45)nc(N4CCOCC4)c3s2)CC1 [Pictilisib] (partner 1 µM)
The essentials: as §1

Compound in the assay “DM3189 + Palbociclib”: C1CN(CCN1)C2=CC=C(C=C2)C3=CN4C(=C(C=N4)C5=CC=NC6=CC=CC=C56)N=C3 [DM3189] + CC(=O)c1c(C)c2cnc(Nc3ccc(N4CCNCC4)cn3)nc2n(C2CCCC2)c1=O [Palbociclib] (partner 0.5 µM)
In short, it runs like this:
as §1

Compound in the assay “DM3189 + Trametinib”: C1CN(CCN1)C2=CC=C(C=C2)C3=CN4C(=C(C=N4)C5=CC=NC6=CC=CC=C56)N=C3 [DM3189] + CC(=O)Nc1cccc(-n2c(=O)n(C3CC3)c(=O)c3c(Nc4ccc(I)cc4F)n(C)c(=O)c(C)c32)c1 [Trametinib] (partner 0.02 µM)
In short, it runs like this:
as §1

Compound in the assay “DM3189 + Lapatinib”: C1CN(CCN1)C2=CC=C(C=C2)C3=CN4C(=C(C=N4)C5=CC=NC6=CC=CC=C56)N=C3 [DM3189] + CS(=O)(=O)CCNCc1ccc(-c2ccc3ncnc(Nc4ccc(OCc5cccc(F)c5)c(Cl)c4)c3c2)o1 [Lapatinib] (partner 2 µM)
The essentials: as §1

In the case of PC-3 [JPC-3], the relative viability with DM3189 + Luminespib (first compound 0.08 µM) stood at 0.725; with DM3189 + Luminespib (first compound 0.253 µM), 0.705; with DM3189 + Luminespib (first compound 0.8 µM), 0.694; with DM3189 + Luminespib (first compound 2.53 µM) it was 0.512; with DM3189 + Pictilisib (first compound 0.08 µM) it was 0.871; in the assay with DM3189 + Pictilisib (first compound 0.253 µM) it was 0.71. The relative viability was 0.669 with DM3189 + Pictilisib (first compound 0.8 µM); 0.75 with DM3189 + Pictilisib (first compound 2.53 µM); 0.574 in the assay with DM3189 + Palbociclib (first compound 0.08 µM); 0.48 with DM3189 + Palbociclib (first compound 0.253 µM); 0.553 with DM3189 + Palbociclib (first compound 0.8 µM); 0.543 in the assay with DM3189 + Palbociclib (first compound 2.53 µM). Further, the relative viability in the assay with DM3189 + Trametinib (first compound 0.08 µM) was 0.75; with DM3189 + Trametinib (first compound 0.253 µM), 0.776; with DM3189 + Trametinib (first compound 0.8 µM) it was 0.722; with DM3189 + Trametinib (first compound 2.53 µM), 0.788; with DM3189 + Lapatinib (first compound 0.08 µM) it was 0.436; with DM3189 + Lapatinib (first compound 0.253 µM) it was 0.456. The relative viability with DM3189 + Lapatinib (first compound 0.8 µM) is 0.431; with DM3189 + Lapatinib (first compound 2.53 µM), 0.439.
For the cell line PC-14, the relative viability turned out to be 0.161 in the assay with DM3189 + Luminespib (first compound 0.08 µM); 0.154 with DM3189 + Luminespib (first compound 0.253 µM); 0.152 with DM3189 + Luminespib (first compound 0.8 µM); 0.154 in the assay with DM3189 + Luminespib (first compound 2.53 µM); 0.782 with DM3189 + Pictilisib (first compound 0.08 µM); 0.739 in the assay with DM3189 + Pictilisib (first compound 0.253 µM). For the same cell line, the relative viability was 0.673 in the assay with DM3189 + Pictilisib (first compound 0.8 µM); 0.538 with DM3189 + Pictilisib (first compound 2.53 µM); 0.591 with DM3189 + Palbociclib (first compound 0.08 µM); 0.458 with DM3189 + Palbociclib (first compound 0.253 µM); 0.465 in the assay with DM3189 + Palbociclib (first compound 0.8 µM); 0.449 with DM3189 + Palbociclib (first compound 2.53 µM). The relative viability in the assay with DM3189 + Trametinib (first compound 0.08 µM) turned out to be 0.732; with DM3189 + Trametinib (first compound 0.253 µM) it was 0.877; with DM3189 + Trametinib (first compound 0.8 µM), 0.635; in the assay with DM3189 + Trametinib (first compound 2.53 µM), 0.849; with DM3189 + Lapatinib (first compound 0.08 µM) it was 0.319; with DM3189 + Lapatinib (first compound 0.253 µM) it was 0.284. Also, the relative viability with DM3189 + Lapatinib (first compound 0.8 µM) came out at 0.34; in the assay with DM3189 + Lapatinib (first compound 2.53 µM) it was 0.377.
As to RERF-LC-KJ, the relative viability in the assay with DM3189 + Luminespib (first compound 0.08 µM) came to 1.37; with DM3189 + Luminespib (first compound 0.253 µM), 1.3; with DM3189 + Luminespib (first compound 0.8 µM) it was 1.46; in the assay with DM3189 + Luminespib (first compound 2.53 µM), 1.19; with DM3189 + Pictilisib (first compound 0.08 µM), 0.585; in the assay with DM3189 + Pictilisib (first compound 0.253 µM), 0.694. Besides, the relative viability in the assay with DM3189 + Pictilisib (first compound 0.8 µM) amounted to 0.602; with DM3189 + Pictilisib (first compound 2.53 µM), 0.562; in the assay with DM3189 + Palbociclib (first compound 0.08 µM), 1.31; with DM3189 + Palbociclib (first compound 0.253 µM), 1.27; with DM3189 + Palbociclib (first compound 0.8 µM), 0.989; with DM3189 + Palbociclib (first compound 2.53 µM) it was 1.03. The relative viability was found to be 1.03 with DM3189 + Trametinib (first compound 0.08 µM); 0.95 with DM3189 + Trametinib (first compound 0.253 µM); 0.927 with DM3189 + Trametinib (first compound 0.8 µM); 0.986 in the assay with DM3189 + Trametinib (first compound 2.53 µM); 0.965 in the assay with DM3189 + Lapatinib (first compound 0.08 µM); 0.954 with DM3189 + Lapatinib (first compound 0.253 µM). Further, the relative viability amounted to 0.843 with DM3189 + Lapatinib (first compound 0.8 µM) and 0.854 with DM3189 + Lapatinib (first compound 2.53 µM).
Turning to SK-LU-1, the relative viability turned out to be 0.181 with DM3189 + Luminespib (first compound 0.08 µM); 0.194 with DM3189 + Luminespib (first compound 0.253 µM); 0.176 in the assay with DM3189 + Luminespib (first compound 0.8 µM); 0.196 with DM3189 + Luminespib (first compound 2.53 µM); 0.531 with DM3189 + Pictilisib (first compound 0.08 µM); 0.4 in the assay with DM3189 + Pictilisib (first compound 0.253 µM). Moreover, the relative viability with DM3189 + Pictilisib (first compound 0.8 µM) was found to be 0.393; with DM3189 + Pictilisib (first compound 2.53 µM) it was 0.393; with DM3189 + Palbociclib (first compound 0.08 µM) it was 0.339; in the assay with DM3189 + Palbociclib (first compound 0.253 µM), 0.268; with DM3189 + Palbociclib (first compound 0.8 µM) it was 0.329; with DM3189 + Palbociclib (first compound 2.53 µM), 0.31. Besides, the relative viability in the assay with DM3189 + Trametinib (first compound 0.08 µM) came out at 0.441; with DM3189 + Trametinib (first compound 0.253 µM), 0.402; with DM3189 + Trametinib (first compound 0.8 µM), 0.429; in the assay with DM3189 + Trametinib (first compound 2.53 µM), 0.378; in the assay with DM3189 + Lapatinib (first compound 0.08 µM) it was 0.864; in the assay with DM3189 + Lapatinib (first compound 0.253 µM), 0.718. For the same cell line, the results for the relative viability with DM3189 + Lapatinib (first compound 0.8 µM) and with DM3189 + Lapatinib (first compound 2.53 µM) were 0.583 and 0.459, respectively.
As for SK-MES-1, the relative viability came to 0.848 with DM3189 + Luminespib (first compound 0.08 µM); 0.82 in the assay with DM3189 + Luminespib (first compound 0.253 µM); 0.611 with DM3189 + Luminespib (first compound 0.8 µM); 0.412 with DM3189 + Luminespib (first compound 2.53 µM); 0.305 in the assay with DM3189 + Pictilisib (first compound 0.08 µM); 0.3 in the assay with DM3189 + Pictilisib (first compound 0.253 µM). In addition, the relative viability with DM3189 + Pictilisib (first compound 0.8 µM) worked out at 0.289; in the assay with DM3189 + Pictilisib (first compound 2.53 µM), 0.319; with DM3189 + Palbociclib (first compound 0.08 µM), 0.236; with DM3189 + Palbociclib (first compound 0.253 µM), 0.26; with DM3189 + Palbociclib (first compound 0.8 µM), 0.343; in the assay with DM3189 + Palbociclib (first compound 2.53 µM), 0.305. The relative viability with DM3189 + Trametinib (first compound 0.08 µM) turned out to be 0.54; with DM3189 + Trametinib (first compound 0.253 µM), 0.485; with DM3189 + Trametinib (first compound 0.8 µM) it was 0.481; with DM3189 + Trametinib (first compound 2.53 µM) it was 0.548; with DM3189 + Lapatinib (first compound 0.08 µM), 0.458; in the assay with DM3189 + Lapatinib (first compound 0.253 µM), 0.416. The figures for the relative viability with DM3189 + Lapatinib (first compound 0.8 µM) and with DM3189 + Lapatinib (first compound 2.53 µM) were 0.456 and 0.402, respectively.
With SW 1573, the relative viability in the assay with DM3189 + Luminespib (first compound 0.08 µM) was 0.261; in the assay with DM3189 + Luminespib (first compound 0.253 µM) it was 0.232; with DM3189 + Luminespib (first compound 0.8 µM), 0.192; with DM3189 + Luminespib (first compound 2.53 µM) it was 0.33; with DM3189 + Pictilisib (first compound 0.08 µM), 0.541; with DM3189 + Pictilisib (first compound 0.253 µM) it was 0.491. Besides, the relative viability stood at 0.466 in the assay with DM3189 + Pictilisib (first compound 0.8 µM); 0.399 with DM3189 + Pictilisib (first compound 2.53 µM); 0.454 with DM3189 + Palbociclib (first compound 0.08 µM); 0.342 in the assay with DM3189 + Palbociclib (first compound 0.253 µM); 0.339 with DM3189 + Palbociclib (first compound 0.8 µM); 0.255 with DM3189 + Palbociclib (first compound 2.53 µM). For the same cell line, the relative viability with DM3189 + Trametinib (first compound 0.08 µM) came out at 0.677; with DM3189 + Trametinib (first compound 0.253 µM), 0.6; with DM3189 + Trametinib (first compound 0.8 µM), 0.53; in the assay with DM3189 + Trametinib (first compound 2.53 µM), 0.539; with DM3189 + Lapatinib (first compound 0.08 µM), 1.1; in the assay with DM3189 + Lapatinib (first compound 0.253 µM), 0.944. Also, the values for the relative viability in the assay with DM3189 + Lapatinib (first compound 0.8 µM) and with DM3189 + Lapatinib (first compound 2.53 µM) were 1.16 and 1.23, respectively.
Regarding UMC-11, the relative viability was found to be 1.01 in the assay with DM3189 + Luminespib (first compound 0.08 µM); 0.986 in the assay with DM3189 + Luminespib (first compound 0.253 µM); 0.882 with DM3189 + Luminespib (first compound 0.8 µM); 0.685 with DM3189 + Luminespib (first compound 2.53 µM); 0.836 with DM3189 + Pictilisib (first compound 0.08 µM); 0.795 in the assay with DM3189 + Pictilisib (first compound 0.253 µM). For the same cell line, the relative viability came to 0.764 with DM3189 + Pictilisib (first compound 0.8 µM); 0.702 with DM3189 + Pictilisib (first compound 2.53 µM); 0.371 in the assay with DM3189 + Palbociclib (first compound 0.08 µM); 0.333 with DM3189 + Palbociclib (first compound 0.253 µM); 0.313 in the assay with DM3189 + Palbociclib (first compound 0.8 µM); 0.323 with DM3189 + Palbociclib (first compound 2.53 µM). The relative viability in the assay with DM3189 + Trametinib (first compound 0.08 µM) worked out at 0.745; with DM3189 + Trametinib (first compound 0.253 µM), 0.706; with DM3189 + Trametinib (first compound 0.8 µM), 0.59; in the assay with DM3189 + Trametinib (first compound 2.53 µM), 0.62; with DM3189 + Lapatinib (first compound 0.08 µM), 1.2; in the assay with DM3189 + Lapatinib (first compound 0.253 µM), 1.04. In addition, the relative viability came out at 0.868 in the assay with DM3189 + Lapatinib (first compound 0.8 µM) and 0.751 in the assay with DM3189 + Lapatinib (first compound 2.53 µM).
